Source: patent publication US10519506B2, “Identification of metastasis-specific miRNA and hypomethylation signatures in human colorectal cancer” (Baylor Research Institute, priority 2011, dated 2019)

Tests used:
Format in all cases: cell-based, human
[1] = system: CRC cell lines; experiment: miRNA expression (TaqMan miRNA assays) in CRC cell lines treated with RNA pol II inhibitor; details: 50 μg/ml α-amanitin for 7 hours (FIG. 9)
Description: (§1) Additional materials and methods. CRC Cell line: CACO2, HCT116, RKO, SW48, SW480, and SW620. Tissue specimens: A total of 59 formalin-fixed, paraffin-embedded (FFPE) primary CRC tissues and corresponding liver metastasis tissues were analyzed. 5-Aza-2′-deoxycytidine (5-aza-dC) treatment: CRC cell lines were treated with 2.5 μM 5-aza-dC for 72 hours. α-amanitin treatment: CRC cell lines were treated with 50 μg/ml α-amanitin, a RNA pol II inhibitor, for 7 hours. Methylation analysis: Methylation levels were analyzed by bisulfite pyrosequencing for quantitative methylation analysis using PSQ HS 96A pyrosequencing system (Qiagen) on bisulfite modified genomic DNA template. microRNAs expression analysis: Expression of miR-373 and miR-520c was analyzed using TaqMan miRNA assays.

[2] = system: CRC cell lines; experiment: miRNA expression (TaqMan miRNA assays) in CRC cell lines treated with demethylating agent
Description: (§2) Cell lines and 5-aza-2-deoxy-cytidine treatment. Seven CRC cell lines, HCT116, RKO, SW48, Caco-2, HT29, SW480, and SW620 were obtained from the American Type Culture Collection (ATCC, Rockville, Md.). Cell lines were treated with 2.5 μM 5-Aza-2′-deoxycytidine (5-aza-dC; Sigma-Aldrich) for 72 hours, and fresh medium containing 5-aza-dC was replaced every 24 hours.
miRNA expression analysis. Expression of fourteen metastasis-related miRNAs (let-7i, miR-10b, miR-30b, miR-34a, miR-141, miR-200b, miR-200c, miR-203, miR-221, miR-320a, miR-373, miR-429, miR-518d, and miR-520c) was analyzed using TaqMan miRNA assays (Applied Biosystems Inc., Foster City, Calif.). Expression of RNU6B (Applied Biosystems Inc., Foster City, Calif.) and miR-16 were used as endogenous controls for cell lines and FFPE tissues, respectively.
as §1, with “5-Aza-2′-deoxycytidine (5-aza-dC) treatment: CRC cell lines were treated with 2.5 μM 5-aza-dC for 72 hours. α-amanitin treatment: CRC cell lines were treated with 50 μg/ml α-amanitin, a RNA pol II inhibitor, for 7 hours.” left out

[3] = system: CRC cell lines; experiment: Alu methylation by quantitative bisulfite pyrosequencing in CRC cell lines treated with demethylating agent; details: for methylation status of global Alu repetitive element: 2.5 μM 5-aza-dC for 72 hours, pyrosequencing (FIG. 3)
Description: as §2
DNA methylation analysis. Methylation levels of repetitive sequences (global Alu and local Alu) were analyzed by quantitative bisulfite pyrosequencing using the PSQ HS 96A pyrosequencing system (Qiagen) following bisulfite modification of genomic DNA using EZ DNA methylation Gold Kits (Zymo Research), as described previously.
as §1

SMILES	expression of miR-520c [1]	miR-373 transcription / activation [1]	miR-373 transcription / activation ([1]; listed as RNA polymerase II inhibitor)	expression of miR-373 ([2]; demethylating agent treatment)	expression of miR-520c ([2]; demethylating agent treatment (FIG. 6B))	methylation status of global Alu repetitive element [3]	methylation status of global Alu repetitive element ([3]; listed as 5-azacytidine)	methylation of Alu element in miR-373 promoter region ([3]; 5Aza treatment)
CC[C@H](C)[C@@H]1NC(=O)CNC(=O)[C@@H]2Cc3c([nH]c4cc(O)ccc34)[S+]([O-])C[C@@H](NC(=O)CNC1=O)C(=O)N[C@@H](CC(N)=O)C(=O)N1C[C@H](O)C[C@H]1C(=O)N[C@@H]([C@@H](C)[C@@H](O)CO)C(=O)N2 (stereo in doubt) [RNA pol II inhibitor, α-amanitin]	inhibited the expression	did not suppress activation	did not suppress	–	–	–	–	–
Nc1ncn([C@H]2C[C@H](O)[C@@H](CO)O2)c(=O)n1 [5-aza, 5-Aza-2′-deoxycytidine]	–	–	–	induced	induced	markedly demethylated	Global hypomethylation of Alu sequences was observed	demethylated
